± gives the standard deviation of the averaged measurements.
What follows are test systems tested with C=C1C[C@H]2C=Nc3cc(OCCCCCOc4cc5c(cc4OC)C(=O)N4CC(=C)C[C@H]4C=N5)c(OC)cc3C(=O)N2C1 [SG2057] (assay: absolute IC50 (cell viability, CellTiter-Glo); higher = less potent). Settings: treatment time: 3 days.
Method: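 Large cancer cell line panel screens in 384-well plates. Cells were treated for 3 days with a 9-point dose titration of the free PBD dimer SG2057; viability was read with CellTiter-Glo. Absolute IC50 came from a four-parameter Hill fit normalised to the median of vehicle (DMSO) wells. Several independent screens (projects) per cell line are averaged; values in µM, lowest-dose floor about 1.524e-5 µM.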

| Test System | absolute IC50 |
| --- | --- |
| COR-L47 | 4010 pM |
| PK-1 | 1530 ± 1300 pM |
| S-117 | 2290 pM |
| HN | 225 pM |
| 23132/87 | 1000 ± 1200 pM |
| UMC-11 | 14800 pM |
| Hepa 1-6 | 286 pM |
| HPAF-II | 4040 ± 150 pM |
| MOR | 8900 pM |
| CAL 27 | 164 pM |
| JC | 463 pM |
| Hs 852.T | 582 ± 63 pM |
| WM-115 | 436 ± 570 pM |
| DEOC-1 | 18900 pM |
| NCI-H2052 | 717 pM |
| NCI-H2405 | 552 ± 380 pM |
| HEC-1-B | 6120 pM |
| NCI-H28 | 890 pM |
| ME-180 | 155 pM |
| OVTOKO | 557 ± 550 pM |
| G61 | 189 ± 15 pM |
| NCI-H716 | 6900 ± 3700 pM |
| OCI-LY-10 | < 15.2 pM |
| RERF-LC-OK | 729 ± 1000 pM |

| Test System | absolute IC50 |
| --- | --- |
| NCI-H1770 | 7470 pM |
| COLO 829 | 320 ± 180 pM |
| COLO 679 | 435 ± 340 pM |
| OV56 | 195 ± 300 pM |
| HT-55 | 3750 ± 2600 pM |
| SF539 | 270 ± 540 pM |
| Caco-2 | 5170 ± 990 pM |
| COLO 320 | 12000 pM |
| HT-115 | 1590 ± 210 pM |
| T84 | 2920 ± 2400 pM |
| PK-45P | 6290 ± 1900 pM |
| HCSC-1 | 3070 pM |
| Ca Ski | 254 pM |
| MDA-MB-157 | 1860 ± 1700 pM |
| AsPC-1 | 5120 ± 5900 pM |
| KLM-1 | 1000 ± 960 pM |
| OVCAR-5 | 1080 ± 300 pM |
| ABC-1 | 365 ± 240 pM |
| MC-38 | 186 pM |
| NCI-H889 | 1320 pM |
| SH-SY5Y | 142 pM |
| HCC1010 | 134 ± 120 pM |
| LCLC-103H | 1110 ± 1200 pM |
| 1624-17091 (Tumor B) | 2120 pM |

| Test System | absolute IC50 |
| --- | --- |
| KHM-5M | 561 pM |
| UM-RC-6 | 651 pM |
| HuCCT1 | 2630 ± 2500 pM |
| HCC2450 | 5430 pM |
| T98G | 3180 ± 3700 pM |
| KPL-1 | 2480 ± 1500 pM |
| HCC60 (NCI-H23) | 268 pM |
| IM-95 | 2410 pM |
| NCI-H1339 | 155 pM |
| NCI-H1975 (MB) | 206 pM |
| FU97 | 1570 pM |
| HCC515 | 134 ± 170 pM |
| COLO 853 | 1000 ± 730 pM |
| MOLP-8 | 212 ± 14 pM |
| 1624-17091 (Tumor A) | 849 pM |
| 51BLim 10 | 371 pM |
| NAMALWA | 64.3 ± 31 pM |
| CAL-12T | 3570 ± 3200 pM |
| COLO 704 | 3360 ± 2600 pM |
| PL45 | 402 pM |
| MX-1 | 2510 ± 2000 pM |
| HSC-5 | 621 pM |
| KMS-28PE | 64.7 ± 36 pM |
| KNS-62 | 1400 ± 2500 pM |

| Test System | absolute IC50 |
| --- | --- |
| GOS-3 | 597 pM |
| FOX-NY | 77.3 pM |
| HCC70 (DODx) | 4647 ± 17 pM |
| Hep G2 | 2200 pM |
| SK-UT-1B | < 15.2 pM |
| 1624-17147 (Tumor B) | 1550 pM |
| LXFL529 | 2720 pM |
| COLO 685 | 1320 pM |
| HEC-6 | 536 pM |
| SW 1990 | 516 ± 220 pM |
| CHL-1 | 1390 ± 1100 pM |
| 501A | 378 ± 250 pM |
| KPP14388 LN | 490 pM |
| AB22 | 4950 pM |
| NTERA-2 | < 15.2 pM |
| RERF-LC-MS | 212 ± 150 pM |
| Hs 683 | 626 ± 1000 pM |
| B16-F10 | 1010 pM |
| 1624-17147 (Tumor A) | 1270 pM |
| NCI-H1437 | 2050 ± 2000 pM |
| CL-34 | 1690 ± 3500 pM |
| PA-TU-8988S | 52100 pM |
| JHH-2 | 4840 ± 8100 pM |
| SUM 159PT | 681 pM |

| Test System | absolute IC50 |
| --- | --- |
| SU.86.86 | 733 ± 480 pM |
| KP4 | 251 ± 140 pM |
| KNS-81 | 189 pM |
| JHH-1 | 2070 ± 3100 pM |
| BT-B | 864 pM |
| KYSE-510 | 68.6 pM |
| COLO 205 | 1520 ± 480 pM |
| EPLC-272H | 205 pM |
| NCI-N87 | 403 ± 110 pM |
| RT-112 | 1530 ± 2800 pM |
| DMS 273 | 1380 pM |
| HPAC | 13200 ± 25000 pM |
| HM7 | 488 ± 270 pM |
| KE-97 | 193 ± 110 pM |
| SK-CO-1 | 201 ± 190 pM |
| EB-3 | 637 ± 850 pM |
| KATO III | 5090 pM |
| C32 | 310 ± 98 pM |
| SNU-719 | 3720 ± 4000 pM |
| H322T | 2680 ± 2100 pM |
| ATRFLOX | 211 ± 410 pM |
| NCI-H441 | 535 pM |
| NCI-H1993 | 564 pM |
| SK-BR-3 | 690 ± 710 pM |

| Test System | absolute IC50 |
| --- | --- |
| NCI-H1395 | 1660 pM |
| PLC/PRF/5 | 8300 pM |
| RERF-GC-1B | 1070 ± 1000 pM |
| NCI-H2171 | 742 ± 1300 pM |
| MKN-7 | 1670 pM |
| KPR3351 | 931 pM |
| SNU-601 | 89.7 ± 46 pM |
| HCC1187 | 601 ± 690 pM |
| KP-3 | 2410 ± 1700 pM |
| MDA-MB-453 | 3210 ± 2300 pM |
| NCI-H2170 | 646 ± 11 pM |
| TOV-21G | 261 pM |
| LA-4 | 1590 pM |
| HT-3 | 212 pM |
| SK-MEL-31 | 3780 pM |
| ChaGo-K-1 | 3300 ± 1500 pM |
| Caki-1 | 52 pM |
| HL-60 | 5240 pM |
| KMS-11 | 761 ± 190 pM |
| ID8 | 292 pM |
| NCI-H1563 | 3610 pM |
| HCC2302 | 8980 pM |
| NCI-H322T | 912 pM |
| NCI-H2461 | 545 ± 890 pM |

| Test System | absolute IC50 |
| --- | --- |
| NCI-H446 | 244 pM |
| BHY | 183 pM |
| C-33 A | 52.7 pM |
| NB69 | 612 pM |
| KYSE-410 | 579 pM |
| COV413A | 2340 pM |
| KP-N-YN | 15.9 pM |
| HCC1159 | 670 pM |
| Hs 38.T | 1360 ± 1700 pM |
| KCI-MOH1 | 3230 ± 2000 pM |
| AN3 CA | 1450 pM |
| MHH-ES-1 | 159 pM |
| IGR-37 | 339 ± 470 pM |
| MOLM-16 | 270 ± 290 pM |
| OvCA 432 | 1080 ± 640 pM |
| NCI-H1355 | 2880 ± 3000 pM |
| FTC-238 | 101 pM |
| BT-474 | 4090 ± 3700 pM |
| OE33 | 61.2 pM |
| KR7414 | 1450 pM |
| YAPC | 1160 ± 740 pM |
| 4498-16820 Mel-BR1 | 550 pM |
| HCC1937 | 4670 ± 4400 pM |
| HEC-1-A | 3860 pM |

| Test System | absolute IC50 |
| --- | --- |
| IGR-1 | 750 ± 910 pM |
| B16-F1 | 595 pM |
| AM-38 | 4530 pM |
| SCLC-22H | 905 pM |
| NCI-H2073 | 28900 pM |
| JHH-4 | 555 ± 540 pM |
| UM-RC-7 | 672 pM |
| COLO 794 | 98.5 ± 63 pM |
| MES-SA | 135 ± 140 pM |
| MC-IXC | 16.3 pM |
| CA46 | 354 ± 530 pM |
| HDQ-P1 | 4080 ± 4400 pM |
| AE17 | 259 pM |
| G121 | 799 ± 380 pM |
| HCC2688 | 282 pM |
| HCC1263 | 5650 ± 3700 pM |
| KURAMOCHI | 4220 pM |
| HT-29 | 2890 ± 2000 pM |
| PMF-ko14 | 2860 ± 5100 pM |
| JJ012 (DODx) | 1420 pM |
| 4498-14745 Mel-BR3 | 390 pM |
| KYSE-150 | 194 pM |

Reference: the supplement of paper PMC10784567
